Data reported in patent US20210348204A1, “Systems, Methods, And Compositions For The Production of Water-Soluble Terpenes Derived From Cannabis Plants” (Trait Biosciences, Inc., priority 2018, published 2021).

How the values were obtained:
onychomycosis = details: comparable to ciclopiroxolamine and sulcanazole; cited from earlier work
platelet aggregation = details: cited from earlier work
cannabinoid receptor = details: cited from earlier work
acne bacteria = details: cited from earlier work
Dermatophytes = details: cited from earlier work
[1] = in vivo; cited from earlier work
breast cancer cells = details: cited from earlier work
5-HTEA = molecular target: T1, 5-HTEA (Mus musculus, UniProt Q64264); details: via 5-HTEA; cited from earlier work
T1 sequence (Q64264 1-421): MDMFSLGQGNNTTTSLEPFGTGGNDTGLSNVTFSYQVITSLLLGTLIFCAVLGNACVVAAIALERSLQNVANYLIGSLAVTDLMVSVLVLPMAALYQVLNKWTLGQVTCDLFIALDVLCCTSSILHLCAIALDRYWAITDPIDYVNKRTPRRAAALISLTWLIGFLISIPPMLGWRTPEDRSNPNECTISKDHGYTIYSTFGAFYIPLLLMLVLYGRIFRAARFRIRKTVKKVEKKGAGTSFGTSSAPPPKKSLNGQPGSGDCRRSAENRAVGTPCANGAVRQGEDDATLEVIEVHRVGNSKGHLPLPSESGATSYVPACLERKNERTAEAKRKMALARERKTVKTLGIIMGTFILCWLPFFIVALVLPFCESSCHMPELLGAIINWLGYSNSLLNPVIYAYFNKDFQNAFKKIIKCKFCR

[2] = via inhalation; cited from earlier work
[3] = test system: Pichia pastoris yeast cells; test: Yeast cell growth after feeding transgenic Pichia cultures with individual terpenes; details: terpene 100 μg/mL final concentration, cultures harvested 2 days post-feeding
[4] = antagonized by naloxone; cited from earlier work
PGE-2 = details: via PGE-2; cited from earlier work
[5] = in vivo; cited from earlier work; remark: listed apart in the source
Acetylcholinesterase = Acetylcholinesterase (Homo sapiens, UniProt P22303); details: aiding memory; cited from earlier work
Acetylcholinesterase, sequence (P22303 32-614): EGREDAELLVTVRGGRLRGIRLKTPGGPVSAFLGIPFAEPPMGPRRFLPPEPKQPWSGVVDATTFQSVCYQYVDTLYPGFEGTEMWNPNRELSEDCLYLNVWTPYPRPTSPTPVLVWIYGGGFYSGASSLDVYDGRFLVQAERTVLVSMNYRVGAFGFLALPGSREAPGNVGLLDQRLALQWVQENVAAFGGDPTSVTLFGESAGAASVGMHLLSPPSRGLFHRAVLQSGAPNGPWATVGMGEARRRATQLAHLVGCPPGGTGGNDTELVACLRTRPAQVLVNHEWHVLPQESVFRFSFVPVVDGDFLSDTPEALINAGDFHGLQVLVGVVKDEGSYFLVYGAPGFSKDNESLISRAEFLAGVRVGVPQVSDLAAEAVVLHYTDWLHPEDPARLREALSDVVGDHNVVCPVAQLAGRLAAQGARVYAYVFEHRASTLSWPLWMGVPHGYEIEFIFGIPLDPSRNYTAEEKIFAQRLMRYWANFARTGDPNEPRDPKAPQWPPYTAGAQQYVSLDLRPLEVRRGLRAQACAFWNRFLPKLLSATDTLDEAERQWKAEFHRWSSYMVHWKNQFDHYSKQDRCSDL

PGE-3 = details: via PGE-3; cited from earlier work
[6] = in humans; cited from earlier work
PGE-1 = details: via PGE-1, comparable phenylbutazone; cited from earlier work
CB2 = CB2 (Homo sapiens, UniProt P34972); details: cited from earlier work
CB2, sequence (P34972 whole entry): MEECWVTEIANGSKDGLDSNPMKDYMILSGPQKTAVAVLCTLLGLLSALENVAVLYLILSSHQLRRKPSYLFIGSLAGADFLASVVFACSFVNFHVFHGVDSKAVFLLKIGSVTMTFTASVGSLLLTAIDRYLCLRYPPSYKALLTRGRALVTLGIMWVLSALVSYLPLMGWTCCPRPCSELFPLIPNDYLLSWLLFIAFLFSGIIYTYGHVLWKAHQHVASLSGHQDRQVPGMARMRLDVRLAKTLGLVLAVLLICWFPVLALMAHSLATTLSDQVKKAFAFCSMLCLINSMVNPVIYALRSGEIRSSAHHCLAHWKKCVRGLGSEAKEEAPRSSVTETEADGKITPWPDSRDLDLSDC

[7] = in vivo; cited from earlier work; remark: listed apart in the source
malaria = details: cited from earlier work
glutamate = details: in vivo; cited from earlier work
Leishmania = details: cited from earlier work
adenosine Aza = adenosine Aza (Mus musculus, UniProt Q60613); details: via adenosine Aza; cited from earlier work
adenosine Aza, sequence (Q60613 whole entry): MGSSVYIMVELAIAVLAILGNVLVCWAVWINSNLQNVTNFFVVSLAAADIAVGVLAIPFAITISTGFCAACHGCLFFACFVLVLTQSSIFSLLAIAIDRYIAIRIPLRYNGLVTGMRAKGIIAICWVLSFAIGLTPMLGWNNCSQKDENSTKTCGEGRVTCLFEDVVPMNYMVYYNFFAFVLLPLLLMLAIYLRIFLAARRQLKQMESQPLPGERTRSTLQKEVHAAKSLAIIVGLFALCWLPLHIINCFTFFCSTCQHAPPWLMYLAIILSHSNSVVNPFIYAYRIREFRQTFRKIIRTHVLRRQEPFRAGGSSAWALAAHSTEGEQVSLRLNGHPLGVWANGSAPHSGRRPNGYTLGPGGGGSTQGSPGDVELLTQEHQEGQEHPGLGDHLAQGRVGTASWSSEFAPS

[8] = in vivo; cited from earlier work; remark: listed apart in the source
[9] = on inhalation in mice; cited from earlier work

Q: For C=C1CC[C@H]2O[C@]2(C)CC[C@@H]2[C@@H]1CC2(C)C [Caryophyllene Oxide], which “Antifungal activity in onychomycosis” value (onychomycosis) is on record?
A: Its value is “Antifungal in onychomycosis comparable to ciclopiroxolamine and sulcanazole”.

Q: What about the “Effect on platelet aggregation” value (platelet aggregation) of the same compound?
A: The value was “Decreases platelet aggregation”.

Q: For C=C(C)[C@@H]1CCC(C)=C[C@H]1c1c(O)cc(CCCCC)cc1O [CBD, cannabidiol], which “Affinity for the cannabinoid receptor (in words)” value (cannabinoid receptor) is on record?
A: The value was “do not have significant affinity”.

Q: With C=C(C)[C@H]1CC=C(C)CC1 [Limonene] as the compound, how does the “Activity against acne bacteria” value (acne bacteria) read?
A: The value was “Active against acne bacteria (Kim et al., 2008)”.

Q: And the Activity against dermatophytes (Dermatophytes)?
A: Its Activity against dermatophytes is “Dermatophytes (Sanguinetti et al., 2007;”.

Q: What about the “Activity in gastro-aesophageal reflux” value [1] of the same compound?
A: Its value is “Gastro-aesophageal reflux (Harris, 2010)”.

Q: And the “Apoptosis of breast cancer cells” value (breast cancer cells)?
A: Its value is “Apoptosis of breast cancer cells (Vigushin”.

Q: What about the Anxiolytic activity (5-HTEA) of the same compound?
A: Its Anxiolytic activity is “Anxielytic”.

Q: And the AD/immunostimulant activity [2]?
A: The AD/immunostimulant activity was “Potent AD/immunostimulant via inhalation”.

Q: For CC(C)=CCC[C@](C)(O)[C@@H]1CC=C(C)CC1 [alpha-bisabolol], which “Effect on yeast cell growth rates” value [3] is on record?
A: Its value is “no observed negative effect”.

Q: For CC(C)=CCCC(C)CCO (stereo not drawn) [citronellol], which “Effect on yeast cell growth rates” value [3] is on record?
A: Its value is “no observed negative effect”.

Q: With CC(C)=CCC/C(C)=C\CO [nerol] as the compound, how does the “Effect on yeast cell growth rates” value [3] read?
A: The value was “no observed negative effect”.

Q: With C=CC(=C)CCC=C(C)C [β-Myrcene] as the compound, how does the Analgesic activity [4] read?
A: Its Analgesic activity is “Analgesic, antagonized by naloxone”.

Q: What about the Blocking of inflammation (PGE-2) of the same compound?
A: The Blocking of inflammation was “Blocks inflammation via PGE-2”.

Q: And the “Sedating, muscle relaxant, hypnotic activity” value [5]?
A: Its value is “Sedating, muscle relaxant, hypnotic (da Vale”.

Q: What does the source list for CC1=CCC2CC1C2(C)C (stereo not drawn) [α-Pinene]?
A: Acetylcholinesterase inhibition (Acetylcholinesterase): Acetylcholinesterase inhibitor, aiding memory; Anti-inflammatory activity (PGE-3): Anti-inflammatory via PGE-3; Bronchodilatory activity [6]: Bronchodilatory in humans

Q: For C=C1CC/C=C(\C)CC[C@@H]2[C@@H]1CC2(C)C [β-Caryophyllene], which “A1 (anti-inflammatory) activity” value (PGE-1) is on record?
A: Its value is “A1 via PGE-1 comparable phenylbutazone”.

Q: And the “Selective CB2 agonist (concentration given)” value (CB2)?
A: Its value is 100 nM.

Q: What about the Gastric cytoprotective activity [7] of the same compound?
A: Its Gastric cytoprotective activity is “Gastric cytoprotective”.

Q: And the Anti-malarial activity (malaria)?
A: Its Anti-malarial activity is “Anti-malarial”.

Q: Which Anticonvulsant/anti-glutamate activity (glutamate) does the source give for C=CC(C)(O)CCC=C(C)C (stereo not drawn) [Linalool] here?
A: The Anticonvulsant/anti-glutamate activity was “Anticonvulsant/anti-glutamate (Elisabetsky”.

Q: What about the Anti-leishmanial activity (Leishmania) of the same compound?
A: Its Anti-leishmanial activity is “Potent anti-leshmarial (do Socorro et al.,”.

Q: What about the Analgesic activity (adenosine Aza) of the same compound?
A: Its Analgesic activity is “Analgesic via adenosine Aza (Peana et al.,”.

Q: And the Anti-anxiety activity [8]?
A: Its Anti-anxiety activity is “Anti-anxiety”.

Q: What about the Sedative activity [9] of the same compound?
A: The Sedative activity was “Sedative on inhalation in mice”.
